Reference: US4316884A, “Sustained release pharmaceutical formulation” (Adria Laboratories, Inc., priority 1980, dated 1982)
“Also recorded” adds a separate entry of the source.

Tests used:
[1] = clinical analgesic/anti-inflammatory efficacy and side effects in man; assay type: in vivo
Procedure: The analgesic dose for indoprofen in man is low in comparison to the anti-inflammatory dose, i.e., in the order of 100 to 600 mg. per day.
However, the dose necessary for indoprofen to exert an anti-inflammatory activity is higher than the analgesic dose, i.e., in the order of 800 to 1200 mg. per day. […] At this dose gastrointestinal ulceration and other side effects are […].

[2] = acidic pH of the stomach, unionized; cited from earlier work
[3] = plasma levels of indoprofen in mice after oral gavage (HPLC-UV); assay type: in vivo
Procedure: Plasma levels of indoprofen are determined in adult mice (22-25 g.) following oral gavage of either pure drug or microencapsulated drug. Drugs are administered at 1% of the body weight. Each treatment group in a single experiment contains four animals and the data is pooled for evaluation. Animals are sacrificed by decapitation. Blood from each treatment group is collected and pooled in heparinized tubes. Plasma is collected and frozen for assay of indoprofen concentration. Plasma indoprofen concentration is determined by high pressure liquid chromatography fitted with a UV detector; concentration is determined at max. 284 nm.
Plasma Level (μg/ml) of Indoprofen in Mice,
Administered Orally as a Suspension*
*Aqueous suspension containing 0.5% methylcellulose and 0.06% surface
^a The apparent rate of elimination, Ke is calculated using a on
compartment open model system as described by J. G. Wagner
Biopharmaceutics and Relevant Pharmacokinetics, page 180, Hamilton Press

[4] = humans; cited from earlier work
[5] = in vivo; cited from earlier work
[6] = human, in vivo

- half-life ([3]; mouse, plasma, oral suspension): 5.4 h
- concentration at 2 h ([3]; mouse, plasma, oral suspension, 2 hours, mean and standard error, read-out: Plasma Level of Indoprofen): 2490 ± 450 ng/mL
- concentration at 4 h ([3]; mouse, plasma, oral suspension, 4 hours, mean and standard error, read-out: Plasma Level of Indoprofen): 1620 ± 150 ng/mL
- concentration at 8 h ([3]; mouse, plasma, oral suspension, 8 hours, mean and standard error, read-out: Plasma Level of Indoprofen): 890 ± 240 ng/mL
- concentration at 16 h ([3]; mouse, plasma, oral suspension, 16 hours, mean and standard error, read-out: Plasma Level of Indoprofen): 490 ± 170 ng/mL
- concentration at 32 h ([3]; mouse, plasma, oral suspension, 32 hours, mean and standard error, read-out: Plasma Level of Indoprofen): 430 ng/mL
- k el ([3]; mouse, plasma, oral suspension, one compartment open model, read-out: Ke, apparent rate of elimination (converted)): 3.54e-05 s⁻¹
- plasma peak height and bioavailability (total area under the plasma curve) as dose is increased [6]: increases in a linear fashion
Structure (SMILES): CC(C(=O)O)c1ccc(N2Cc3ccccc3C2=O)cc1 (stereo not drawn) [indoprofen, alpha-[4-(1-oxo-2-isoindolinyl)-phenyl]propionic acid]
- safety in prolonged therapy ([1]; clinical studies, above 800 mg., especially 1200 mg., per day): has not been shown to be safe for prolonged therapy
- safety classification ([1]; clinical studies, up to 800 mg. per day): safe dose
- effectiveness in osteoarthritis ([1]; man, 800 mg. per day): effective in the treatment of osteoarthritis
- gastrointestinal ulceration and other side effects ([1]; man, 800 mg. per day): minimal
- effectiveness in rheumatoid arthritis ([1]; man, 1200 mg. per day): effective in the treatment of rheumatoid arthritis
- gastrointestinal ulceration and other side effects ([1]; man, 1200 mg. per day): the incidence of gastrointestinal ulceration and other side effects are recognized
- analgesic effect ([1]; man, 100 to 600 mg. per day): maximum analgesic effect
- side effects ([1]; man, 100 to 600 mg. per day): minimal or negligible side effects
- solubility [2]: poorly soluble
- AUC ([3]; mouse, plasma, oral, 1% of the body weight, read-out: area under the plasma curve): 24500 ng·h/mL
- Cmax ([3]; mouse, plasma, oral, 1% of the body weight, read-out: plasma peak height): 2500 ng/mL
- bioavailability, pure drug versus microencapsulated form ([3]; oral): bioequivalent; also recorded: equivalent bioavailability
- plasma peak height, pure drug relative to microencapsulated drug ([3]; oral, listed as pure drug): two times that of microencapsulated form; also recorded: two times that of the microencapsulated drug
- plasma half-life (t 1/2) [4]: 2.1 to 5.4 h
- anti-inflammatory and analgesic properties [5]: excellent anti-inflammatory and analgesic properties
